{
  "source": "paper PMC6981816",
  "about": "“Characterization of Effectiveness in Concerted Ih Inhibition and IK(Ca) Stimulation by Pterostilbene (Trans-3,5-dimethoxy-4′-hydroxystilbene), a Stilbenoid” (International Journal of Molecular Sciences, 2020)",
  "target": "T1, large-conductance Ca2+-activated K+ (BKCa) channel (IK(Ca)) (Rattus norvegicus, UniProt Q62976)",
  "T1 construct": "gene Kcnma1; native channel in GH3 pituitary cells",
  "T1 sequence (Q62976 whole entry)": "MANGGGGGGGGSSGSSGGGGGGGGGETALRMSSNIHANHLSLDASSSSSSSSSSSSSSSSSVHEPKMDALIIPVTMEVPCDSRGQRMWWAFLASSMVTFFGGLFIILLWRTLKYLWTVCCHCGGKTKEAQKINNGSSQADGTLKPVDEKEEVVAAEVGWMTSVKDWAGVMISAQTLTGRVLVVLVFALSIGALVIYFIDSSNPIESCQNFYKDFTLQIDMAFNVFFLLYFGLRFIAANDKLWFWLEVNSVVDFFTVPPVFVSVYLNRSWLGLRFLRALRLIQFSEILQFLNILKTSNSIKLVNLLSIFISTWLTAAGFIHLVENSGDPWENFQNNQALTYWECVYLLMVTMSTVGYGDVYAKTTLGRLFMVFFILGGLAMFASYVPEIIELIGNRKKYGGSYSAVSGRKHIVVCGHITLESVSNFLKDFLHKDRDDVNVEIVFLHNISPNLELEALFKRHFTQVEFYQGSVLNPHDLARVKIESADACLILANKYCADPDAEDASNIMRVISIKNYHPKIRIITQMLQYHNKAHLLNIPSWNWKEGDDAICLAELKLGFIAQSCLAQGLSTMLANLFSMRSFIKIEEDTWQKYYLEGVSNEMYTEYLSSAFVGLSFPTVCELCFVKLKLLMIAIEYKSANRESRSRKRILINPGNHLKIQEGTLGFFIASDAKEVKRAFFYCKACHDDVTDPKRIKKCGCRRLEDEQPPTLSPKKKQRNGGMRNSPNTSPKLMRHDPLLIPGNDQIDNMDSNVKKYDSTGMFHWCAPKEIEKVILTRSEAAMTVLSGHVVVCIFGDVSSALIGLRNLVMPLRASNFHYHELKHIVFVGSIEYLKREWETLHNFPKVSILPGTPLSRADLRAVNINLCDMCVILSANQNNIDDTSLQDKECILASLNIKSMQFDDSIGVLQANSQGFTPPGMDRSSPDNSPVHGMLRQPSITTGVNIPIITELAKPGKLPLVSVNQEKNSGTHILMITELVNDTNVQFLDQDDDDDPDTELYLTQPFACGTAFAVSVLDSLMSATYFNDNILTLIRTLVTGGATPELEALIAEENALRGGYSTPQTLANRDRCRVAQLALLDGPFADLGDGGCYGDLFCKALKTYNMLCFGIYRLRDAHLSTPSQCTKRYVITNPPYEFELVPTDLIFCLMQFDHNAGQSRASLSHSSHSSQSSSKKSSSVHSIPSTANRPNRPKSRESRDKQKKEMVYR",
  "test": "whole-cell patch clamp of IK(Ca), concentration-response; reversed by verruculogen",
  "type": "cell-based",
  "note": "pEC50: −log10 of the molar value.",
  "data": [
    {"smiles": "COc1cc(/C=C/c2ccc(O)cc2)cc(OC)c1", "note": "[PTER, trans-3,5-dimethoxy-4′-hydroxystilbene]", "values": [
      {"measurement": "pEC50", "result": 5.65}
    ]}
  ]
}
